Reference: paper PMC10518257 (Nature Cancer, 2023)
Where “and” joins values, the source holds several entries; their conditions need not be identical. Identical values can stand only once. Like-named read-outs stand apart in the source and are kept apart here.

How the values were obtained:
Ba/F3-CCDC6::RET = assay: Growth inhibition assay in Ba/F3 cells (CellTiter-Glo, 72 h); assay type: cell-based
[1] = test system: Ba/F3 cells expressing KIF5B–RET^G810C; assay: as above; assay type: cell-based; conditions: replicate Sets 1-3
[2] = target: T1, panel of 255 (vepafestinib) or 256 (all other inhibitors) recombinant kinases (Homo sapiens, UniProt P35916); assay: Kinase selectivity profiling at a single concentration (Carna Biosciences); assay type: biochemical; conditions: 22 nM
T1 construct: purchased Carna Biosciences
T1 sequence (P35916 25-1363): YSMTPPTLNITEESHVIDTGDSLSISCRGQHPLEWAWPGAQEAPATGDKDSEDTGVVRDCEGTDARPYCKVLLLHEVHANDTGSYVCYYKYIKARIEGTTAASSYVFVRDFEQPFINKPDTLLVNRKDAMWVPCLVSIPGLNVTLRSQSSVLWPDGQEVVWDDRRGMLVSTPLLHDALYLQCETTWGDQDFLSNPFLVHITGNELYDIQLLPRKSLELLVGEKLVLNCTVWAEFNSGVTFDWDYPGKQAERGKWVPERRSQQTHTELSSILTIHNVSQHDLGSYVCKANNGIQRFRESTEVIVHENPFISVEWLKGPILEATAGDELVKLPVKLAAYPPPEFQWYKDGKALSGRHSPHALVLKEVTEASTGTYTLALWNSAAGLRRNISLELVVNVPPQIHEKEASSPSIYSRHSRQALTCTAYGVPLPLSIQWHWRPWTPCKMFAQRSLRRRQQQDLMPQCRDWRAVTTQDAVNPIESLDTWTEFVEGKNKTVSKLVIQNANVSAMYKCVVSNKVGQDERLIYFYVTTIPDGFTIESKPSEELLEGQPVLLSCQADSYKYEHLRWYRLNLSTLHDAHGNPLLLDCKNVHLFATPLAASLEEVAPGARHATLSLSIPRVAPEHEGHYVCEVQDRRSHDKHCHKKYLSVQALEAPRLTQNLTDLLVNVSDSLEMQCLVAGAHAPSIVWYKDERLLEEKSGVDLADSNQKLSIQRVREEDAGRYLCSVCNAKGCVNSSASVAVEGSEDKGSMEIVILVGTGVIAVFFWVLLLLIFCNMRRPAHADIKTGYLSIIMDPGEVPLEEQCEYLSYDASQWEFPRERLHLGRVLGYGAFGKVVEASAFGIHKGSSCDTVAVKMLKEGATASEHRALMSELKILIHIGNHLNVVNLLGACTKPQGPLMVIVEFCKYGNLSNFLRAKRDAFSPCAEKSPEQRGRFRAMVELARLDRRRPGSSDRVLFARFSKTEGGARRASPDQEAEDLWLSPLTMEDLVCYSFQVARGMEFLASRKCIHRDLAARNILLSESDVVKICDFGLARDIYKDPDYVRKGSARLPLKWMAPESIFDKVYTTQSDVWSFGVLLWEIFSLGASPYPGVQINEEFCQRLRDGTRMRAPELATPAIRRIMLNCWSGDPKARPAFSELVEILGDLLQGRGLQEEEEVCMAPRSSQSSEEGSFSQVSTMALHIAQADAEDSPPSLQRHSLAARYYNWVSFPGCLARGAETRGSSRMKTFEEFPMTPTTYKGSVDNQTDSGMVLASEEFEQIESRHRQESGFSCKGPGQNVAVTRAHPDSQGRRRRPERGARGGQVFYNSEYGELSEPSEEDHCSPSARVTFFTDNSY

[3] = target: T2, panel of 255 (vepafestinib) or 256 (all other inhibitors) recombinant kinases (Homo sapiens, UniProt P16234); assay: as above; assay type: biochemical; conditions: 22 nM
T2 construct: purchased Carna Biosciences
T2 sequence (P16234 24-1089): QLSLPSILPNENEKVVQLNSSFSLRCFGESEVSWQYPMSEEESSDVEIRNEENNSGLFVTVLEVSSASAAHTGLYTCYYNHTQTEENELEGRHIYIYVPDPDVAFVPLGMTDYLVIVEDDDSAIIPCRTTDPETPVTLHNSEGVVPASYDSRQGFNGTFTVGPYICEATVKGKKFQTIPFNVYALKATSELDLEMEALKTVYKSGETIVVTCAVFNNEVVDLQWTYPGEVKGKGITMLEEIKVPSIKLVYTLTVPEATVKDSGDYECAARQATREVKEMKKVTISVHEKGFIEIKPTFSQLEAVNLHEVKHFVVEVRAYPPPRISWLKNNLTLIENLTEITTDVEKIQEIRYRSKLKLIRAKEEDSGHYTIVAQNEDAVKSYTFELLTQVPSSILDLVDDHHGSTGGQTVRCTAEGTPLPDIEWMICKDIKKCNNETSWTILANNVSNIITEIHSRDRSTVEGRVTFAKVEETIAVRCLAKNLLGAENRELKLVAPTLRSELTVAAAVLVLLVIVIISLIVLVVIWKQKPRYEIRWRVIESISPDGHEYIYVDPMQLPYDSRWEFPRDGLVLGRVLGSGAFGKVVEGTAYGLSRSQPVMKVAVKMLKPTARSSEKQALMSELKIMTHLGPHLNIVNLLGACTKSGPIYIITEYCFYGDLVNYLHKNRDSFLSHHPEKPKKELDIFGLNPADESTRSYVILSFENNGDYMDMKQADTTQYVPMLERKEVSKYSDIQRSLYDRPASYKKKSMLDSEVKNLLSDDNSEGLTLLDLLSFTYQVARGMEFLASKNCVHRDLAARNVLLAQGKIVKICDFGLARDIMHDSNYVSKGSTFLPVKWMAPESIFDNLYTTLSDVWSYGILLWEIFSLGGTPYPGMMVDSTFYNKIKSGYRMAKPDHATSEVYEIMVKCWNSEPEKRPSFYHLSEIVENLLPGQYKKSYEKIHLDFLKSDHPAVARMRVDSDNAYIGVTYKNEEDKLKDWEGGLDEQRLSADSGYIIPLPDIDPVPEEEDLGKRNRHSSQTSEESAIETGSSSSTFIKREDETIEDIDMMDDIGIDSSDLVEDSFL

[4] = target: panel of 255 (vepafestinib) or 256 (all other inhibitors) recombinant kinases; assay: as above; assay type: biochemical; conditions: 22 nM, 256 kinases
LUAD-0087AS2 cells = assay: Growth inhibition (alamarBlue, 96 h); assay type: cell-based, human; conditions: for raw viability signal (Source Data Fig. 3b-c): LUAD-0087AS2, replicate sets
[5] = test system: Ba/F3 cells expressing KIF5B–RET^G810R; assay: Growth inhibition assay in Ba/F3 cells (CellTiter-Glo, 72 h); assay type: cell-based; conditions: replicate Sets 1-3
ECLC5B cells = assay: Growth inhibition (alamarBlue, 96 h); assay type: cell-based, human; conditions: for raw viability signal (Source Data Fig. 3b-c): ECLC5B, replicates
[6] = Transcellular transport study, apparent permeability; conditions: pig, LLC-PK1
LUAD-0077AS1 PDX = assay: PDX efficacy study; assay type: in vivo, NSG mice; parameters: Tumor volume: unit not given here; conditions: 10 mg/kg BID
Ba/F3-CCDC6::RET^S904F = assay: Growth inhibition assay in Ba/F3 cells (CellTiter-Glo, 72 h); assay type: cell-based
[7] = test system: Ba/F3 cells expressing KIF5B–RET^WT; assay: as above; assay type: cell-based; conditions: Ba/3-KIF5B-RET; replicate sets
[8] = Homo sapiens, 96 h, read-out: IC50 for Inhibition of Growth (95% CI)

## COc1ccc(CN2C3CC2CN(c2ccc(-c4cc(OCC(C)(C)O)cn5ncc(C#N)c45)cn2)C3)cn1 [Selpercatinib]
Ba/F3-CCDC6::RET; BaF3/CCDC6-RET, 72 h, read-out: GI50 value (Mean ± SD), Ba/F3-CCDC6::RET, CellTiter-Glo, 72 h
  GI50: 21.4 ± 7.5 nM
Ba/F3-CCDC6::RET; read-out: GI50 values, Ba/F3-CCDC6::RET, individual sets (replicate experiments)
  GI50: 13 nM and 27.4 nM
[1]; Ba/3-KIF5B-RET-G810C
  GI50: 201 nM and 181 nM
[1]; Mus musculus, BaF3, Ba/3-KIF5B-RET-G810C
  GI50: 233 nM
[2]
  % Inhibiton FLT4: 84.9%
[3]
  % Inhibiton PDGFRα: 28.7%
[4]
  kinases inhibited by >50%: three
LUAD-0087AS2 cells; [8]
  IC50: 11 nM
LUAD-0087AS2 cells; 0.01 nM
  raw viability signal (Source Data Fig. 3b-c): 15388.6 and 12720.2
LUAD-0087AS2 cells; 0.1 nM
  raw viability signal (Source Data Fig. 3b-c): 16047 and 13628.3
LUAD-0087AS2 cells; 1 nM
  raw viability signal (Source Data Fig. 3b-c): 15441.4 and 12355.8
LUAD-0087AS2 cells; 10 nM
  raw viability signal (Source Data Fig. 3b-c): 6632.52 and 4277.26
LUAD-0087AS2 cells; 100 nM
  raw viability signal (Source Data Fig. 3b-c): 5690.09 and 3170.8
LUAD-0087AS2 cells; 1000 nM
  raw viability signal (Source Data Fig. 3b-c): 5599.27 and 2744.81
LUAD-0087AS2 cells; 10000 nM
  raw viability signal (Source Data Fig. 3b-c): 3412.76 and 2132.34
[5]; Ba/3-KIF5B-RET-G810R
  GI50: 1070 nM and 1190 nM
[5]; Mus musculus, BaF3, Ba/3-KIF5B-RET-G810R
  GI50: 800 nM
ECLC5B cells; 0.01 nM
  raw viability signal (Source Data Fig. 3b-c): 10363.9 and 7402.21 and 18274
ECLC5B cells; 0.1 nM
  raw viability signal (Source Data Fig. 3b-c): 11026.5 and 8834.98 and 20243.9
ECLC5B cells; 1 nM
  raw viability signal (Source Data Fig. 3b-c): 10668.5 and 7252.95 and 17721.9
ECLC5B cells; 10 nM
  raw viability signal (Source Data Fig. 3b-c): 3598.88 and 1351.95 and 6402.34
ECLC5B cells; 100 nM
  raw viability signal (Source Data Fig. 3b-c): 3342.11 and 1356.99 and 4729.16
ECLC5B cells; 1000 nM
  raw viability signal (Source Data Fig. 3b-c): 2886.96 and 1354.63 and 4277.75
ECLC5B cells; 10000 nM
  raw viability signal (Source Data Fig. 3b-c): 1612.7 and 1276.67 and 2944.43
ECLC5B cells; [8]
  IC50: 5 nM
[6]
  Papp at 3 h, 1 μM: 17 ×10⁻⁶ cm/s
LUAD-0077AS1 PDX; Fig. 6b LUAD-0077AS1 tumor growth
  Area Under Curve Mean: -23
LUAD-0077AS1 PDX; LUAD-0077AS1, individual animals
  Change in tumor volume (block without heading, Fig. 6b): 38.5614 and 19.1252 and 18.7579 and 13.1905 and -24.8651
LUAD-0077AS1 PDX; LUAD-0077AS1, treatment day 0, individual animals
  Tumor volume: 87.11 (3×) and 85.5 and 88.7
LUAD-0077AS1 PDX; LUAD-0077AS1, treatment day 4, individual animals
  Tumor volume: 68.07 (2×) and 74.9 and 73.54 and 70.82
LUAD-0077AS1 PDX; LUAD-0077AS1, treatment day 7, individual animals
  Tumor volume: 60.32 and 69.38 and 66.76 and 62.86
LUAD-0077AS1 PDX; LUAD-0077AS1, treatment day 11, individual animals
  Tumor volume: 55.4 and 58.99 and 56.5 and 54.36 and 55.52
LUAD-0077AS1 PDX; LUAD-0077AS1, treatment day 14, individual animals
  Tumor volume: 43.41 and 58.99 (2×) and 54.36 and 55.52
LUAD-0077AS1 PDX; LUAD-0077AS1, treatment day 19, individual animals
  Tumor volume: 65.45 and 118.47 and 103.45 and 103.77 and 100.4
LUAD-0077AS1 PDX; LUAD-0077AS1, treatment day 22, individual animals
  Tumor volume: 73.3 and 171.06 and 147.55 and 142.9 and 164.22
LUAD-0077AS1 PDX; LUAD-0077AS1, treatment day 25, individual animals
  Tumor volume: 73.3 and 231.59 and 205.8 and 209.11 and 214.85
Ba/F3-CCDC6::RET^S904F; Mus musculus, BaF3, 72 h, read-out: GI50 value (Mean ± SD), Ba/F3-CCDC6::RET^S904F, CellTiter-Glo, 72 h
  GI50: 4.76 ± 3.02 nM
Ba/F3-CCDC6::RET^S904F; read-out: GI50 values, Ba/F3-CCDC6::RET S904F, individual sets (replicate experiments)
  GI50: 4.25 nM and 8 nM and 2.03 nM
[7]
  GI50: 6.35 nM and 7.55 nM
